# Molecular target: Glutamate receptor ionotropic, NMDA 1 (Rattus norvegicus, UniProt P35439)
# Assay: Compound was evaluated for its ability to displace [3H]TCP from PCP N-methyl-D-aspartate glutamate receptor in rat brain
# Format: tissue-based
row,SMILES,Ki [nM]
1,c1ccc([C@]2(N3CCCCC3)C[C@H]3C[C@H]3C2)cc1,644
2,c1ccc([C@@]2(N3CCCCC3)C[C@H]3C[C@H]3C2)cc1,711
3,c1ccc([C@]2(N3CCCCC3)CC[C@@H]3C[C@@H]32)cc1,29000
4,c1ccc([C@@]2(N3CCCCC3)CC[C@H]3C[C@H]32)cc1,8220
5,c1ccc([C@]2(N3CCCCC3)CC[C@H]3C[C@H]32)cc1 (racemic),582
6,c1ccc(C2(N3CCCCC3)CCCCC2)cc1 [PHENCYCLIDINE],64.5

# — ChEMBL document CHEMBL1126186 (J Med Chem, 1992)
